# Experimental data: US4957926A, “Method of treating herpesviruses” (priority 1988, dated 1990)
# Entries after “also recorded” stand apart in the source; their conditions may differ. Like-named read-outs stand apart in the source and are kept apart here.
# Tests used:
# [1] = system: Cytomegalovirus (Viral Strain Towne); assay: Cytomegalovirus Plaque Reduction Assay; format: cell-based
# Source text: (§1) For testing the N-Bu-DNJ against HSV, the HSV Type II strain HG52 described by Timbury, J. Gen. Virol. 13, 373-376 (1971), and Davis et al., Analyst 110, 605-609 (1985), is useful. For testing against CMV, the prototype CMV ADl69 strain described, for example, by Tyms et al., J. Gen. Virol. 68, 1563-1573 (1987), and in U.S. Pat. No. 4,743,560, is useful. Another useful CMV strain is the Towne strain described by Glazer et al., Ann. Inter. Med. 91, 676-683 (1979).
# (§2) Human embryo fibroblast cells (HEF) were grown in Eagles minimal essential medium supplemented with 7% fetal calf serum (FCS), 9 mM sodium bicarbonate and 7 mM HEPES buffer. In maintenance medium the supplements were adjusted to 2% FCS, 13 mM sodium bicarbonate and 14 mM HEPES. CMV, strain Towne, and HSV type II, strain […], were used in the following tests. CMV virus stocks were prepared and stored by technique as previously described by Tyms & Williamson, Nature 297, 690-691 […]. Herpes virus stocks were prepared and stored by technique as previously described by Davis et al., Analyst 110, 605-609 (1985). The HEF were human embryonic lung fibroblasts, strain MRC-5, as described by Tyms and Williamson, Nature 297, 690-691 (1982).
# (§3) For plaque reduction assays, 24-well culture trays were seeded with HEF cells. Confluent monolayers were infected with virus to give initially about 100 plaque-forming-units (p.f.u.) per well. After a one hour absorption period the inocula were replaced by l.5ml of a maintenance medium incorporating 0.5% low gelling temperature agarose, supplemented with various concentrations of test compound. For tests with CMV, infected monolayers were fixed with 5% formalin in phosphate buffered saline (PBS) at 6-8 days post-infection and stained with 0.3% methylene blue after removal of the overlay; whereas, tests with HSV were conducted in the same manner but with the monolayer fixing at 2 days post infection. The mean plaque number was calculated from a multiple series of counts (e.g., duplicate, triplicate or quadruplicate), converted to a percentage of untreated controls and values plotted against the log10 drug concentration. The 50% effective dose (ED50) was determined from best line fits for the curves.
# In a similar manner, the Effective Dosage Values (ED50) were determined from the curves of FIG. 1. A least squares fit of the data of FIG. 1 to an equation of the form: y=mx+b gave the following values: […]
# From these values, a 50% effective dose (ED50) was calculated to give the following values: […]
# [2] = system: HSV type I; assay: preliminary tests with a HSV type I strain which did not form multinucleated giant cells; format: cell-based; settings: strain not forming giant cells
# Source text: The formation of multinucleated giant cells (syncytia), which result from the fusion of T4 cells with each other, is one of the most striking properties of HIV [Walker et al., Proc. Natl. Acad. Sci. USA 84, 8120-8124 (1987); Gruters et al., Nature 330, 74-77 (1987)]. Some, but not all, HSV strains also produce these multinucleated giant cells in vitro cell culture.
# [3] = system: Cytomegalovirus (Viral Strain Towne); assay: Yield Reduction Assay against infections with CMV (Towne strain); format: cell-based; settings: for Plaque Count (infectivity titre): 10^1 dil.; for activity at 500 µM / activity at 2000 µM: read-out: % Virus Control
# Procedure: Antiviral activities of N-Bu-DNJ and comparative test compounds against infections with CMV (Towne strain) were also measured by the yield reduction assay as follows:
# HEF cells (MRC-5) were infected at high multiplicity of infection (about one p.f.u. per cell) and incubated with various concentrations of the test compounds for 5 and 6 days post infection. The level of infectious virus shed into the extracellular fluid was determined at 5 and 6 days by plaque assays as described above, using serial dilution of extracellular fluid to bring readings on scale.
# In Table VI, to calculate plaque-forming units (PFU) of the maintenance medium overlayering HEF cells, the plaque count at the most sensitive dilution (from Table V) was multiplied by dilution value and then by 5 (0.2 ml sample volumes used in test) to give PFU (per ml maintenance medium). (e.g. calculation of drug control: 31×10^3 ×5=1.6×10^5 PFU).
# [4] = system: Herpes Simplex Type II (Viral Strain HG52); assay: Herpes Simplex Type II Plaque Reduction Assay; format: cell-based; settings: for Plaque Count: replicate counts
# Source text: as §1, §2, §3
# The mean plaque numbers determined on HEF cells exposed to varying amount of N-Bu-DNJ, N-Me-DNJ, N-He-DNJ, 2-deoxy-D-glucose and castanospermine were converted to percentage values (plaque count in presence of drug divided by mean value of untreated controls×100), and plotted as a function of drug concentration [drug (mM)].
# The 50% effective dose (ED50)--that amount of drug needed to reduce plaque count by 50%--was calculated to give the following values: […]
# [5] = system: HEF cells (strain MRC-5); assay: HEF cell growth / monolayer appearance in HSV type II plaque reduction assay; format: cell-based, human; settings: all concentrations (0.56-4.5 mM)
# Procedure: as §3
# [6] = Fleet et al., compound No. 57 vs. No. 16; cited from earlier work
compound,measurement,setting,value
"CCCCN1C[C@H](O)[C@@H](O)[C@H](O)[C@H]1CO [N-Bu-DNJ, Nbutyl deoxynojirimycin]",EC50,"[1]; Human betaherpesvirus 5, HEF, CMV, calculated from least squares fit of FIG. 1, read-out: 50% effective dose (ED50)",570 µM
same,activity at 220 µM,"[1]; Human betaherpesvirus 5, HEF, Table IV, 0.22 mM, read-out: % Virus control",87%
same,activity at 450 µM,"[1]; Human betaherpesvirus 5, HEF, Table IV, 0.45 mM, read-out: % Virus control",52%
same,activity at 900 µM,"[1]; Human betaherpesvirus 5, HEF, Table IV, 0.90 mM, read-out: % Virus control",32%
same,activity at 1800 µM,"[1]; Human betaherpesvirus 5, HEF, Table IV, 1.8 mM, read-out: % Virus control",17%
same,Plaque Count Avg,"[1]; Table IV, 0.22 mM",153
same,Plaque Count,"[1]; Table IV, 0.22 mM, replicate counts","159,156,144,153"
same,Plaque Count Avg,"[1]; Table IV, 0.45 mM",92
same,Plaque Count Avg,"[1]; Table IV, 0.90 mM",56
same,Plaque Count Avg,"[1]; Table IV, 1.8 mM",30
same,reduction of CMV infection of HEF cells (in words),[1]; compared with castanospermine,reduces CMV infection of HEF cells at about the same dosage as does castanospermine
same,antiviral effect on HSV type I strain (in words),[2],only minor effect
same,PFU,"[3]; 0.5 mM, 5 days HEF growth",8.5 × 10^5 PFU (per ml maintenance medium
same,Plaque Count (infectivity titre),"[3]; 0.5 mM, 5 days growth",~ 200
same,PFU,"[3]; 0.5 mM, 6 days HEF growth",1.3 × 10^4 PFU (per ml maintenance medium
same,Plaque Count (infectivity titre),"[3]; 0.5 mM, 6 days growth",~ 200
same,PFU,"[3]; 2.0 mM, 5 days HEF growth",1.4 × 10^3 PFU (per ml maintenance medium
same,PFU,"[3]; 2.0 mM, 6 days HEF growth",5.5 × 10^2 PFU (per ml maintenance medium
same,activity at 500 µM,"[3]; Human betaherpesvirus 5, MRC5, 120 h, 0.5 mM, 5 days HEF growth",5.3%
same,activity at 2000 µM,"[3]; Human betaherpesvirus 5, MRC5, 120 h, 2.0 mM, 5 days HEF growth",0.88%
same,activity at 500 µM,"[3]; Human betaherpesvirus 5, MRC5, 144 h, 0.5 mM, 6 days HEF growth",3.5%
same,activity at 2000 µM,"[3]; Human betaherpesvirus 5, MRC5, 144 h, 2.0 mM, 6 days HEF growth",0.15%
same,antiviral activity against HSV type II (in words),[4],substantially reduce herpesvirus type II infection of HEF cells; also recorded: strong antiviral activity
same,EC50,"[4]; HEF, HSV type II, amount of drug needed to reduce plaque count by 50%, read-out: 50% effective dose (ED50)",1200 µM
same,activity at 220 µM,"[4]; HEF, Table I, 0.22 mM, read-out: % Virus Control",85%
same,activity at 450 µM,"[4]; HEF, Table I, 0.45 mM, read-out: % Virus Control",60%
same,activity at 900 µM,"[4]; HEF, Table I, 0.9 mM, read-out: % Virus Control",37%
same,activity at 1800 µM,"[4]; HEF, Table I, 1.8 mM, read-out: % Virus Control",40%
same,activity at 3600 µM,"[4]; HEF, Table I, 3.6 mM, read-out: % Virus Control",7.7%
same,activity at 560 µM,"[4]; HEF, Table III, 0.56 mM, read-out: % Virus Control",56.9%
same,activity at 1120 µM,"[4]; HEF, Table III, 1.12 mM, read-out: % Virus Control",51%
same,activity at 2250 µM,"[4]; HEF, Table III, 2.25 mM, read-out: % Virus Control",27.5%
same,activity at 4500 µM,"[4]; HEF, Table III, 4.5 mM, read-out: % Virus Control",17.6%
same,Plaque Count Avg,"[4]; Table I, 0.22 mM",66
same,Plaque Count,"[4]; Table I, 0.22 mM","80,52"
same,Plaque Count Avg,"[4]; Table I, 0.45 mM",47
same,Plaque Count,"[4]; Table I, 0.45 mM","42,53"
same,Plaque Count Avg,"[4]; Table I, 0.9 mM",29
same,Plaque Count,"[4]; Table I, 0.9 mM","36,22"
same,Plaque Count Avg,"[4]; Table I, 1.8 mM",31
same,Plaque Count,"[4]; Table I, 1.8 mM","41,20"
same,Plaque Count Avg,"[4]; Table I, 3.6 mM",6
same,Plaque Count,"[4]; Table I, 3.6 mM","5,7"
same,Plaque Count Avg,"[4]; Table III, 0.56 mM",29
same,Plaque Count Avg,"[4]; Table III, 1.12 mM",26
same,Plaque Count Avg,"[4]; Table III, 2.25 mM",14
same,Plaque Count Avg,"[4]; Table III, 4.5 mM",9
same,HEF cell growth (in words),[5],grew normally
same,cytotoxicity relative to castanospermine (in words),[6],substantially less cytotoxic
